According to the SangsterLogP compilation:

details: pH 2.0

| SMILES | logD |
| --- | --- |
| CCN(CC)S(=O)(=O)c1ccc(C(=O)N2CCNC(=O)[C@H]2CC(=O)OC)cc1 | 1.14 |
| CC[C@@H](NS(=O)(=O)c1ccc(C)cc1)C(=O)Oc1ccc2c3c(c(=O)oc2c1)CCCC3 | 3.08 |

More lines, now with the values ahead:

| logD | SMILES |
| --- | --- |
| 4.21 | C[C@H](NC1=NS(=O)(=O)c2ccccc21)C(=O)OCC(=O)/C=C1/N(C)c2ccccc2C1(C)C |
| 4.58 | O=C1[C@@H](CSCc2ccccc2)NC(=S)N1C1CCCCC1 |
| 2.41 | CC(=O)N1Cc2ccccc2C[C@H]1C(=O)OCc1ccc(C#N)cc1 |

same assay, conditions: pH 5.0

| SMILES | logD |
| --- | --- |
| CN(C)C(=O)[C@H]1OC(C)(C)O[C@@H]1C(=O)N(C)C | 1.49 |
| C[C@@H](Sc1nnnn1-c1ccc(Cl)cc1)C(=O)NCC(=O)Nc1ccc(F)c(F)c1F | 4.52 |
| C[C@H]1CN(C(=O)c2csc3c2CCCC3)/C(=N/c2ccc(Cl)cc2)S1 | 5.53 |
| COC(=O)c1ccc([C@@H]2C3=C(C[C@H](c4ccco4)CC3=O)Nc3ccccc3N2C(=O)C2CC2)cc1 | 4.44 |
| Cc1c(Nc2nc3ccccc3nc2Nc2cccc(Cl)c2)c(=O)n(-c2ccccc2)n1C | 5.96 |
| CSc1ccc(S(=O)(=O)N(CC(=O)NC[C@@H]2CCCO2)c2ccc(C)cc2)cc1 | 4.3 |
| CS(=O)(=O)N(CC(=O)N1CCc2ccccc2C1)c1ccc(OCc2ccccc2)cc1 | 4.91 |
| O=C1[C@@H](c2cccc(Br)c2)N(CCC2=CCCCC2)C(=O)CN1C1CCCCC1 | 5.6 |
| O=C1c2ccccc2C(=O)N1/N=C/c1cc([N+](=O)[O-])ccc1Cl | 4.03 |
| CCOC(=O)C1=C(C)NC(=O)C[C@@H]1c1cc(OC)c(OC)cc1Br | 3.93 |
| CC1(C)CC(=O)C2=C(C1)OC(N)=C(C#N)[C@H]2c1ccc(C(F)(F)F)cc1 | 4.55 |
| O=C(Nc1cccc(Cl)c1)c1cc2n(n1)[C@H](C(F)(F)F)C[C@@H](c1ccccc1)N2 | 5.92 |
| COc1cc2c(cc1OC)[C@H](COc1ccc3c(C)cc(=O)oc3c1)N(C(=O)C1CCCCC1)CC2 | 5.07 |
| COc1ccc(N(C(=O)C2CCCCC2)S(=O)(=O)c2ccc3c4c(cccc24)C(=O)N3C)cc1 | 5.26 |
| CCOc1cc(C(=O)Nc2ccc(OC)c(OC)c2)cc(OCC)c1OCC | 4.11 |
| C[C@@H]1CCCC[C@H]1NC(=O)COC(=O)C1=COCCO1 | 2.48 |
| O=C1Nc2cc(C(=O)NC3CC3)ccc2S/C1=C\c1ccccc1 | 4.32 |
| COc1cccc(NC(=O)[C@H](OC(=O)C2=COCCO2)c2ccccc2)c1 | 3.81 |
| O=C1[C@H]2OC[C@H](O2)[C@H]2[C@@H]1[C@@H]1C=C[C@H]2C1 | 1.48 |
| CCCC[C@H](CC)Cn1c(SCC(=O)Nc2ccc(OC)cc2)nc2c1c(=O)n(C)c(=O)n2C | 5.51 |
| CCCC1=C(C(=O)OCC)[C@H](c2ccc3c(c2)OCO3)NC(=O)N1 | 3.59 |
| Cc1onc(-c2c(F)cccc2Cl)c1C(=O)OCC(=O)N1[C@H](C)CCC[C@H]1C | 4.38 |
| COc1ccc(C(=O)OCC(=O)c2cc(C)n(C[C@@H]3CCCO3)c2C)c(OC)c1 | 4.18 |

Continued, values first:

| logD | SMILES |
| --- | --- |
| 4.63 | COc1ccc(Oc2c(C(F)(F)F)oc3cc(OC(=O)N4CCOCC4)ccc3c2=O)cc1 |
| 5.45 | COc1cc2c(cc1OC)[C@@H](COc1ccc(F)cc1)N(C(=O)/C=C/c1ccccc1)CC2 |
| 5.83 | CCOc1cc([C@H]2[C@@H]3CN(C(=O)OC(C)(C)C)CC=C3C(C#N)=C(N)C2(C#N)C#N)ccc1OC(C)C |
| 6.27 | COc1ccccc1NC(=O)C1=C(C)NC(SCC(=O)Nc2ccc(C)c(Cl)c2)=C(C#N)[C@@H]1c1ccco1 |
| 3.9 | Cc1ccc(NC(=O)[C@@H]2CCCN2C(=O)OC(C)(C)C)cc1C |
| 4.01 | Cc1ccc(CNC(=O)C2CCN(S(=O)(=O)c3ccc4c(c3)OCCCO4)CC2)cc1 |
| 3.89 | Cc1c(NC(=O)[C@@H]2CCCCN2S(=O)(=O)c2ccc(Cl)cc2)c(=O)n(-c2ccccc2)n1C |
| 2.84 | CC[C@H](C)NC(=O)NC(C(F)(F)F)C(F)(F)F |
| 1.87 | CCOC(=O)c1ccc(C#N)cc1 |
| 2.78 | Cc1noc(C)c1C(=O)O[C@@H](C)C(=O)Nc1ccc2c(c1)OCCO2 |
| 4.39 | C[C@@H]1CCC[C@H](C)N1C(=O)COC(=O)c1ccc2c(c1)S(=O)(=O)c1ccccc1C2=O |
| 3.72 | COC(=O)c1cccc(NC(=O)c2ccc(C)cc2)c1 |
| 5.53 | O=C(/C=C/c1ccccc1)Nc1cccc(NC(=O)c2cccc(Cl)c2)c1 |
| 2.86 | C=CCN1C(=S)N(c2ccc(CC)cc2)[C@H]2CS(=O)(=O)C[C@@H]21 |
| 6.01 | CCOC(=O)c1c(C)nc(SC[C@@]2(O)CCCC[C@@H]2SC)c(C#N)c1-c1ccccc1 |
| 4.56 | CCOC(=O)c1c(N2C(=O)[C@@H]3CC(C)=C(C)C[C@H]3C2=O)sc(C)c1C |
| 4.62 | CC(=O)Nc1ccc(C(=O)N(Cc2ccco2)C2(C(=O)Nc3c(C)cccc3C)CCCCC2)cc1 |
| 6.53 | COC(=O)c1c(NC(=O)Cn2nc(C)c([N+](=O)[O-])c2C)sc2c1CC[C@H](C(C)(C)C)C2 |
| 3.65 | O=C(OCCN1C(=O)c2ccccc2C1=O)[C@@H]1C[C@H](O)CN1S(=O)(=O)c1ccc(Cl)cc1 |
| 3.99 | Cc1c(N[C@@H](NC(=O)c2cccc([N+](=O)[O-])c2)C(Cl)(Cl)Cl)c(=O)n(-c2ccccc2)n1C |
| 4.49 | CCN(CC)S(=O)(=O)c1ccc2nnn(OCC(=O)NC(c3ccccc3)c3ccccc3)c2c1 |
| 4.45 | CCCCOc1ccc(/C=C/C(=O)NC(C)C)cc1 |
| 5.63 | Cc1ccccc1N[C@@H](c1ccccc1F)P(=O)(OC(C)C)OC(C)C |
| 5 | CCOC(=O)CN1C(=O)[C@@H](OC(=O)c2ccccc2)[C@@H](OC(=O)c2ccccc2)C1=O |
| 4.73 | CC(=O)c1c(C)[nH]c(C(=O)COC(=O)c2ccccc2NC(=O)c2ccco2)c1C |

same assay, conditions: pH 6.5

| SMILES | logD |
| --- | --- |
| CCN(C(=O)CN1C(=O)[C@H]2CCCC[C@H]2C1=O)c1nnc(-c2ccc(Cl)cc2)s1 | 4.91 |
| NC(=O)C(C(=O)/C=C/c1ccc(Cl)cc1)=C1SCS1 | 3.64 |
| COC[C@H](C)NC(=O)CCl | 0.61 |
| COC(=O)c1ccc(C(=O)OC)c(NC(=O)CSc2ncnc3sc4c(c23)CC[C@@H](C)C4)c1 | 5.79 |
| O=P(Oc1ccccc1)(Oc1ccccc1)O[C@@H]1C=CS(=O)(=O)C1 | 2.48 |
| O=C(CN1C(=O)/C(=C2\SC(=S)N(Cc3ccco3)C2=O)c2ccccc21)Nc1ccc(F)cc1 | 6.36 |
| CCCOc1ccc(N2C(=O)C[C@H](N3CCNC3=S)C2=O)cc1 | 2.68 |
| COc1ccc(N2C(=S)N=C(N[C@@H]([C@@H](Oc3ccc(Cl)cc3)n3cncn3)C(C)(C)C)C2(C)C)cc1 | 5.56 |

Results, then the molecule that gave them:

| logD | SMILES |
| --- | --- |
| 5.2 | COc1cccc(/C=C/C(=O)OCC(=O)c2cc(C)n(-c3cc(C)on3)c2C)c1 |
| 3.83 | Cc1ccc(NC(=O)COC(=O)/C(=C/c2cccs2)c2cccs2)c(C)c1 |
| 4.75 | Cc1cccc(NC(=O)C[C@@H]2S/C(=N\c3c(C)cccc3C)N(C)C2=O)c1 |
| 5.07 | CC/C(=N\N=C1/S[C@@H](C)C(=O)N1Cc1ccco1)c1ccccc1 |

same assay, conditions: pH 7.0

| logD | SMILES |
| --- | --- |
| 5.28 | Cn1c([C@@H](C#N)C(=O)[C@@H](Sc2ccccc2)c2ccccc2)nc2ccccc21 |

same assay, conditions: pH 7.3

| SMILES | logD |
| --- | --- |
| COc1ccc([C@H]2C[C@H](C(F)(F)F)n3ncc(C(=O)N(C)Cc4cnn(C)c4C)c3N2)cc1OC | 4.25 |
| CC1=NC2=C(C(=O)CCC2)[C@H](c2ccc(Cl)cc2)C1C(=O)OCCc1ccccc1 (stereo partly specified) | 5.48 |
| Cc1cc(C)n(-c2ccc(-n3cccc3/C=C(\C#N)S(C)(=O)=O)cc2)n1 | 4.25 |

Further lines, results first:

| logD | SMILES |
| --- | --- |
| 2.12 | CC(C)[C@@H](Sc1nnc(C(F)(F)F)n1C)C(=O)NC(N)=O |
| 5.87 | CSc1ncc2c(n1)-c1c(SC)sc(C(=O)Nc3ccc(Cl)cc3)c1CC2 |

same assay, conditions: pH 8.0

| SMILES | logD |
| --- | --- |
| CCCc1[nH]nc2c1[C@@]1(C(=O)N(CC(N)=O)c3ccccc31)C(C(=O)OC)=C(N)O2 | 4.48 |
| COc1cc(/C=C/C(=O)Nc2ccc(N3CCCCC3)cc2)ccc1OC(F)F | 5.36 |
| CC(=O)N(c1ccccc1)c1nc(/C=C/C(=O)Nc2ccc3c(c2)OCO3)cs1 | 4.37 |

Further lines, results first:

| logD | SMILES |
| --- | --- |
| 3.43 | COc1ccc([C@@H](C)n2c(C)c3c(C)nnc(C)c3c2C)cc1 |
| 4.48 | CCc1cccc(C)c1N(C(=O)Cn1c([C@@H](C)O)nc2ccccc21)[C@@H](C)COC |

same assay, conditions: pH 10.0

| SMILES | logD |
| --- | --- |
| CCn1c(SCC(=O)NC(C)(C)C)nnc1C1CCCCC1 | 3.2 |
| CCOC(=O)C1=C(C)NC2=C(C(=O)C[C@H](c3ccc(OC)c(OC)c3)C2)[C@H]1c1ccccc1OC | 3.79 |
| C[C@H]1C[C@H](C)CN(C(=O)CSc2nnc(-c3ccccc3)n2C)C1 | 3.68 |
| Cc1cc(C(F)(F)F)nn1[C@@H](C)c1nnc(Nc2ccn(Cc3ccccc3)n2)s1 | 5.34 |
| COc1ccc(/N=C/c2ccc(/C=N/c3ccc(OC)cc3)cc2)cc1 | 5.24 |
| COc1ccc2c(c1)C(=O)N(Cc1ccco1)C(=O)/C2=C\Nc1c(C)n(C)n(-c2ccccc2)c1=O | 4.66 |
| CCO/C(O)=C/c1nc2nonc2nc1O | 1.61 |
| N#CC1=C(N)OC2=C(C(=O)C[C@H](c3ccccc3)C2)[C@H]1c1ccccc1F | 3.07 |
| CC(=O)c1ccc(N2CCN(C(=O)/C=C/c3ccc(C)o3)CC2)cc1 | 4.3 |
| O=[N+]([O-])c1ccccc1/C=N/c1ccc(/N=C/c2ccccc2[N+](=O)[O-])cc1 | 2.95 |

Continued, values first:

| logD | SMILES |
| --- | --- |
| 4.38 | CCOC(=O)[C@H]1N=C(C2=C(O)c3ccccc3C2=O)[C@@H]2C(=O)N(N(C)c3ncc(C(F)(F)F)cc3Cl)C(=O)[C@@H]21 |
| 5.24 | CCSCCOC(=O)C1=C(C)NC2=C(C(=O)C[C@@H](c3cccs3)C2)[C@@H]1c1ccc(C(=O)OC)cc1 |
| 5.49 | CCOC(=O)C1=C(N)N2C(=O)[C@H](C)SC2=C(C(=O)OCC)[C@H]1c1ccc(Cl)cc1Cl |
| 4.55 | CCC[C@@H](C)NC(=O)COc1ncnc2sc3c(c12)CC[C@@H](C)C3 |

same assay, conditions: pH 10.5

| SMILES | logD |
| --- | --- |
| Cc1cccc(-n2c(S[C@@H](C)C(N)=O)nnc2-c2cccc(S(=O)(=O)N(C)C)c2)c1 | 3.81 |
| CC(=O)C1=C(C)NC(SCC(=O)c2ccc(Cl)cc2Cl)=C(C#N)[C@@H]1c1cccs1 | 5.25 |
| COCCOC(=O)C1=C(C)NC2=C(C(=O)CC(c3cccc(OC)c3)C2)C1c1coc2ccc(C)cc2c1=O (stereo unspecified) | 5.23 |
| CC[C@@H]1CCCCN1C(=O)CSc1nc(C)cc(C)n1 | 3.61 |

The remaining lines, values ahead:

| logD | SMILES |
| --- | --- |
| 3.4 | CCN(C(=O)[C@@H](C)OC(=O)c1cc(OC)c(OC)c(OC)c1)c1ccccc1 |
| 5.72 | CN1C(=O)N(C)C2(c3ccccc3)Nn3c(s/c(=C\c4ccc(Br)cc4)c3=O)=NC12c1ccccc1 (stereo unspecified) |
